Measured values as given in US20220062233A1 (The Board of Trustees of the Leland Stanford Junior …, priority 2018, published 2022).

Columns and labels:
[1] = system: wild-type HTT; test: Wild-type HTT assay in lymphoblastoid cells (LBC), Western blot; type: cell-based, human; settings: 3 days compound treatment, read-out: LBC IC20 (nM) wtHTT
Experimental: (§1) B. Mutant and Wild-Type HTT Assay in Lymphoblastoid Cells (LBC)
(§2) a. Cell Culturing and Compound Treatment
(§3) Lymphoblastoid cells derived from a Huntington's disease patient with 250 CAG repeats in the mutant HTT allele (GM14044 from Coriell Institute) were cultured in RPMI 1640 (Corning Cellgro, 10-040-CV) containing fetal bovine serum (Atlanta Biologicals, S11150). 4×10^5 cells were seeded on a 24-well plate and incubated with testing compound for 3 days. The cell suspension was then transferred to a 1.5 ml Eppendorf tube. Cells were collected by centrifugation and washed once with PBS. After all liquid was removed, the cell pellet was placed at −80° C. for at least 10 minutes. Lysis buffer [30 mM Tris-HCl (pH 8.0), 5 mM NaCl, 0.1% Triton X-100] with the proteinase inhibitor cocktail (P8340 from Sigma-Aldrich) was then added to the cells. Following centrifugation (14 k rpm for 15 min at 4° C.), the supernatant was collected. The protein concentrations were determined by BCA assay (Pierce, ThermoFisher).
(§4) Equal amounts of protein were loaded onto 4-12% gel (Invitrogen, WG1403A). After electrophoresis, the gels were transferred to nitrocellulose membranes by wet transfer at 72V for 3 hrs. […] The protein levels of mutant HTT, wild-type HTT, TBP, and tubulin were determined by immunoblotting with anti-polyQ specific antibody (clone MW1), anti-Huntingtin antibody (Abcam, ab45169), anti-TBP antibody (Sigma, T1827) and anti-alpha tubulin antibody (Sigma, T9026). Blots were imaged on a Li-Cor Odyssey infrared imager. The band intensities were determined by Li-Cor Odyssey software.

[2] = system: mutant HTT; test: Mutant HTT assay in induced pluripotent stem cells (iPSC); type: cell-based, human; settings: HD patient iPSCs, one day incubation, read-out: iPSC IC20 (nM) mHTT
Experimental: C. Mutant HTT Assay in Induced Pluripotent Stem Cells (iPSC) a. Cell Culturing and Compound Treatment
Huntington's disease patient iPSCs (ND50036 from NINDS) were detached into single cells by Accutase (25058CI from Corning), counted and plated on a 24-well plate coated with Matrigel (354277 from Corning) at density of 7,000 cells/well. After 48 hrs, compounds were added to the cell culture medium mTeSR1 (85850 from StemCell Technologies) and the cells were incubated for one day. The medium was then removed, and the cells were washed with PBS. After all liquid was removed, the plate was placed at −80° C. overnight. Lysis buffer [30 mM Tris-HCl (pH 8.0), 5 mM NaCl, 0.1% Triton X-100] with the complete proteinase inhibitor cocktail (5892791001 from Sigma-Aldrich) was then added to the cells. Cell samples were lysed on an orbital plate shaker at 4° C. at 700 rpm for 30 min. The supernatants from spinning (14 k rpm for 10 min) were collected. The protein concentrations were determined by BCA assay (23225 from Pierce, ThermoFisher). […]
b. Detection of Mutant HTT Protein
Equal amounts of protein lysate collected from each sample were added to a 96-well plate that had been coated with a human HTT specific monoclonal antibody. After washing away any unbound substances, a biotinylated anti-human mutant HTT specific detection antibody was added. Streptavidin-horseradish peroxidase was subsequently added, followed by TMB Substrate Solution, which yielded a blue product that turns yellow when the Stop Solution was added. The intensity of the color measured was in proportion to the amount of mutant HTT bound in the initial step. The mutant HTT values are then interpolated from a standard curve.

[3] = system: M2-8 cells; test: M2-8 Cell viability Assay; type: cell-based; settings: at the concentration of 1000 nM
[4] = system: mutant HTT; test: Mutant HTT assay in lymphoblastoid cells (LBC), Western blot; type: cell-based, human; settings: read-out: LBC IC20 (nM) mHTT, 3 days compound treatment
Experimental: as §1, §2, §3, §4

[5] = molecular target: T1, interaction between Supt4h and NGN (subunit of Supt5h) (Homo sapiens, UniProt O00267+P63272); test: Split Gaussia luciferase complementation assay (M2-8 Luciferase); type: cell-based; settings: M2-8 cells
T1 construct: expressed in transfected cells
Experimental: A. Split Gaussia Luciferase Complementation Assay […]
i: pNBR-X1-Supt4-Gluc1 and pNEBR-X1-NGN-Gluc2
The HA-Supt4h and Flag-NGN fragments are amplified by PCR using the plasmid pHA-Supt4h-YC and pFlag-NGN-YN and sub-cloned individually into pcDNA3.1-Gluc1 and pcDNA3.1-Gluc2 (described in “A highly sensitive protein-protein interaction assay based on Gaussia luciferase” published at Nat Methods. 2006 December; 3(12):977-9. Epub 2006 Nov. 12). Then HA-Supt4h-Gluc1 and Flag-NGN-Gluc2 are amplified by PCR and inserted to pNEBR-X1-Hygro (New England BioLabs), which contain RheoSwitch responsive element under the control of RheoSwitch ligand. […]
ii: pNEBR-X1-Supt4h-G1-NGN-G2
PCR products containing the sequence from 5XRE to polyA in pNEBR-X1-NGN-G2 are inserted to pNEBR-X1-Supt4h-G1 at Pcil site to generate Supt4h-G1 and NGN-G2 bidirectional under their own RheoSwitch responsive element and polyA in the same plasmid. […]
b. Stable Cloned Cell Line i: 293-R1 is a cloned cell line which is engineered to constitutively express RSL1 receptor/activator by transfecting HEK 293 cells with pNEBR-R1 plasmid (New England BioLabs) and selected with blasticidin. […]
ii: M2-8 is a cloned 293-R1 cell which can inducibly express pNEBR-X1-Supt4h-G1-NGN-G2 by addition of RSL1. Two point mutations ([…] and M110I) are introduced to the GL1 and GL2 for better stability according to “A high-throughput cell-based Gaussia luciferase reporter assay for identifying modulators of fibulin-3 secretion” published in J Biomol Screen. 2013 July; 18(6):647-58. The cell line is selected by hygromycin. […]
c. Cell Culture and Transfection Condition
All the HEK-293 cells and derivative clones are maintained in DMEM containing 10% FBS plus corresponding antibiotics (250 μg/ml hygromycin B, 10 μg/ml blasticidin or both) at 37° C., 5% CO2. All the transfections are done by using Lipofectamine 2000 (Invitrogen) according to the manufacturer's instructions. […]
d. Bioluminescence Assay from Cell Lysates
Plasmids harboring the Gluc1 and Gluc2 are co-transfected in a 1:1 ratio into 293-R1 cells plated on tissue culture treated 24-well plates using Lipofectamine 2000 according to the manufacturer's instructions. For stable M2-8 cells, the cells are directly plated into 96-well or 384-well white plates. Twenty-four hours later, RheoSwitch ligand with or without test compound is added to the cells for induction/drug treatment. After 24 hr, the cells are washed with PBS and the plate was stored at −20° C. overnight. Lysis buffer [30 mM Tris-HCl (pH 8.0) 5 mM NaCl, 0.1% Triton X-100] with 10 μg/ml native coelenterazine (Nanolight Technology) is then added to the cells at room temperature for one hour in the dark. After shaking for about 1 min, 40 μl of cell lysate are transferred to a white 96-well plate. For M2-8 in white micro plate, no transfer is needed. Signal intensities (integrated 100 ms) were read on Tecan Infinite M200 or M1000.
The split Gaussia luciferase complementation assay measures the interaction between Sup4h and NGN. NGN is the subunit of Supt5h that binds to Supt4h.

[6] = system: Lymphoblastoid cells (GM14044); test: LBC cell viability (Cell Titer-Glo); type: cell-based, human; settings: at the concentration of IC20, 3-day compound treatment
Experimental: Cell viability was determined by Cell Titer-Glo reagent (Promega, PRG9243). After 3-day compound treatment, 15 μl of cell suspension was taken out from plate and incubated with 10 μl of CTG reagent. The values of reaction mixture were detected by Tecan.

[7] = system: Huntington's disease patient iPSCs (ND50036); test: iPSC viability at IC20; type: cell-based, human; settings: at the concentration of IC20

| Structure (SMILES) | IC20 [1] | IC20 ([2]; numeric bounds) | M2-8 Cell viability [3] | IC20 [4] | IC50 [5] | LBC viability at IC20 [6] | IC20 ([2]; class symbols) | iPSC viability at IC20 [7] |
| --- | --- | --- | --- | --- | --- | --- | --- | --- |
| OB(O)c1cccc(CN[C@@H]2CCCc3c2[nH]c2ccc(Br)cc32)c1 (single isomer, unassigned) [Compound 39] | > 1000 nM | > 100 nM | + (cell viability is greater than 50% at the concentration of 1000 nM) | > 1000 nM | ≤ 100 nM | – | – | – |
| COCC(N[C@@H]1CCCc2c1[nH]c1ccc(Br)cc21)c1ccc(C(C)(C)O)cc1 (single isomer, unassigned) [Compound 53] | > 500 nM | > 100 nM | + (cell viability is greater than 50% at the concentration of 1000 nM) | > 1000 nM | 101 to 300 nM | – | – | – |
| CC(C)(O)c1cccc(CN[C@@H]2CCCc3c2[nH]c2ccc(Br)cc32)c1 (single isomer, unassigned) [Compound 58] | > 1000 nM | > 100 nM | + (cell viability is greater than 50% at the concentration of 1000 nM) | 101 to 300 nM | 101 to 300 nM | * (cell viability is greater than 60% at the concentration of IC20) | – | – |
| COC(=O)c1cccc(CN[C@@H]2CCCc3c2[nH]c2ccc(Br)cc32)c1 (single isomer, unassigned) [Compound 59] | > 1000 nM | > 100 nM | + (cell viability is greater than 50% at the concentration of 1000 nM) | 101 to 300 nM | 101 to 300 nM | * (cell viability is greater than 60% at the concentration of IC20) | – | – |
| C#Cc1ccc2[nH]c3c(c2c1)CCC[C@H]3NCc1ccccc1 [Compound 5, (R)—N-benzyl-6-ethynyl-2,3,4,9-tetrahydro-1H-carbazol-1-amine] | > 1000 nM | > 100 nM | + (cell viability is greater than 50% at the concentration of 1000 nM) | < 100 nM | ≤ 100 nM | * (cell viability is greater than 60% at the concentration of IC20) | – | – |
| Brc1ccc2[nH]c3c(c2c1)CCC[C@H]3NCc1cccnc1 [Compound 32, (R)-6-bromo-N-(pyridin-3-ylmethyl)-2,3,4,9-tetrahydro-1H-carbazol-1-amine] | > 1000 nM | > 100 nM | + (cell viability is greater than 50% at the concentration of 1000 nM) | < 100 nM | 101 to 300 nM | * (cell viability is greater than 60% at the concentration of IC20) | – | – |
| Brc1ccc2[nH]c3c(c2c1)CCC[C@H]3NCc1ccccn1 [Compound 33, (R)-6-bromo-N-(pyridin-2-ylmethyl)-2,3,4,9-tetrahydro-1H-carbazol-1-amine] | > 1000 nM | > 100 nM | + (cell viability is greater than 50% at the concentration of 1000 nM) | 301 to 1000 nM | 101 to 300 nM | * (cell viability is greater than 60% at the concentration of IC20) | – | – |
| Brc1ccc2[nH]c3c(c2c1)CCC[C@H]3NCc1cccc(I)c1 [Compound 41, (R)-6-bromo-N-(3-iodobenzyl)-2,3,4,9-tetrahydro-1H-carbazol-1-amine] | > 1000 nM | > 100 nM | + (cell viability is greater than 50% at the concentration of 1000 nM) | 101 to 300 nM | ≤ 100 nM | * (cell viability is greater than 60% at the concentration of IC20) | – | – |
| C=C(C)c1ccc(CN[C@@H]2CCCc3c2[nH]c2ccc(Br)cc32)s1 [Compound 68] | > 1000 nM | > 100 nM | + (cell viability is greater than 50% at the concentration of 1000 nM) | 101 to 300 nM | ≤ 100 nM | * (cell viability is greater than 60% at the concentration of IC20) | – | – |
| Brc1ccc2[nH]c3c(c2n1)CCC[C@H]3NCc1ccccc1 [Compound 69] | – | – | + (cell viability is greater than 50% at the concentration of 1000 nM) | – | ≤ 100 nM | – | < 100 nM | + (cell viability is greater than 75% at the concentration of IC20) |
